Literature values, collected in patent US20120238559A1, “NOVEL COMPOUNDS” (GLAXO GROUP LIMITED, priority 2009, published 2012).

Experiments:
[1] = tested on: neutrophils
[2] = tested on: Class I PI3-kinases; conditions: each of the four Class I PI3-kinases; read-out: IC50 against each of the various Class I PI3-kinases
[3] = tested on: neutrophils; conditions: treatment of neutrophils; Thelen et al. 1994

| Structure (SMILES) | neutrophil migration and superoxide release [1] | IC50 [2] [nM] | fMLP-induced respiratory burst response [3] |
| --- | --- | --- | --- |
| O=c1cc(N2CCOCC2)oc2c(-c3ccccc3)cccc12 [LY294002] | block neutrophil migration and superoxide release |  |  |
| COC[C@H]1OC(=O)c2coc3c2[C@@]1(C)C1=C(C3=O)[C@@H]2CCC(=O)[C@@]2(C)C[C@H]1OC(C)=O [wortmannin] | block neutrophil migration and superoxide release | 1 to 10 | prevents the fMLP-induced respiratory burst response |
